Experimental data taken from PubChem BioAssay (NCI).
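Exposure lasted 48 hours, with cells grown in 96-well plates and compounds tested at five concentrations. GI50: concentration for 50% inhibition of growth. TGI: total growth inhibition.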

Tests used:
Test in all cases: NCI-60 cell line screen, 48 h
HCT-15 colon = test system: HCT-15 colon
OVCAR-5 ovarian = test system: OVCAR-5 ovarian
BT-549 breast = test system: BT-549 breast
OVCAR-3 ovarian = test system: OVCAR-3 ovarian
NCI/ADR-RES ovarian = test system: NCI/ADR-RES ovarian
OVCAR-8 ovarian = test system: OVCAR-8 ovarian
UACC-62 melanoma = test system: UACC-62 melanoma
ACHN renal = test system: ACHN renal
M14 melanoma = test system: M14 melanoma
HS 578T breast = test system: HS 578T breast
SR leukemia = test system: SR leukemia
MALME-3M melanoma = test system: MALME-3M melanoma
LOX IMVI melanoma = test system: LOX IMVI melanoma
SK-OV-3 ovarian = test system: SK-OV-3 ovarian
SN12C renal = test system: SN12C renal
UACC-257 melanoma = test system: UACC-257 melanoma
UO-31 renal = test system: UO-31 renal
NCI-H460 lung = test system: NCI-H460 lung
HOP-92 NSCLC = test system: HOP-92 NSCLC
SK-MEL-2 melanoma = test system: SK-MEL-2 melanoma
MOLT-4 leukemia = test system: MOLT-4 leukemia
OVCAR-4 ovarian = test system: OVCAR-4 ovarian
HCC-2998 colon = test system: HCC-2998 colon
SNB-19 CNS = test system: SNB-19 CNS
RPMI-8226 leukemia = test system: RPMI-8226 leukemia
U251 CNS = test system: U251 CNS
TK-10 renal = test system: TK-10 renal
HOP-62 NSCLC = test system: HOP-62 NSCLC
A549 NSCLC = test system: A549 NSCLC
NCI-H226 lung = test system: NCI-H226 lung
A498 renal = test system: A498 renal
NCI-H23 lung = test system: NCI-H23 lung
COLO 205 colon = test system: COLO 205 colon
SNB-75 CNS = test system: SNB-75 CNS
SK-MEL-5 melanoma = test system: SK-MEL-5 melanoma
SF-268 CNS = test system: SF-268 CNS
SF-295 CNS = test system: SF-295 CNS
IGROV1 ovarian = test system: IGROV1 ovarian
DU-145 prostate = test system: DU-145 prostate
MDA-MB-231 breast = test system: MDA-MB-231 breast
KM12 colon = test system: KM12 colon
HT29 colon = test system: HT29 colon
RXF 393 renal = test system: RXF 393 renal
T-47D breast = test system: T-47D breast
NCI-H522 lung = test system: NCI-H522 lung
SF-539 CNS = test system: SF-539 CNS
MCF7 breast = test system: MCF7 breast
HL-60(TB) leukemia = test system: HL-60(TB) leukemia
K-562 leukemia = test system: K-562 leukemia
HCT-116 colon = test system: HCT-116 colon
CCRF-CEM leukemia = test system: CCRF-CEM leukemia
MDA-MB-435 = test system: MDA-MB-435
SK-MEL-28 melanoma = test system: SK-MEL-28 melanoma
786-0 renal = test system: 786-0 renal
PC-3 prostate = test system: PC-3 prostate
CAKI-1 renal = test system: CAKI-1 renal
SW-620 colon = test system: SW-620 colon

Work on CS(=O)(=O)CCc1cccc(C(=O)c2cnn(-c3ccc(F)cc3)c2N)c1 yielded a GI50 (HCT-15 colon) of over 25 µM, a TGI (HCT-15 colon) of over 25 µM and a GI50 (OVCAR-5 ovarian) of over 25 µM. The TGI (OVCAR-5 ovarian) was over 25 µM, the GI50 (BT-549 breast) was over 25 µM and the TGI (BT-549 breast) was over 25 µM. The GI50 (OVCAR-3 ovarian) was over 25 µM, the TGI (OVCAR-3 ovarian) was over 25 µM and the GI50 (NCI/ADR-RES ovarian) was over 25 µM. For the same molecule, the TGI (NCI/ADR-RES ovarian) was over 25 µM, the GI50 (OVCAR-8 ovarian) was over 25 µM and the TGI (OVCAR-8 ovarian) was over 25 µM. It also gave a GI50 (UACC-62 melanoma) of over 25 µM, a TGI (UACC-62 melanoma) of over 25 µM and a GI50 (ACHN renal) of over 25 µM. The TGI (ACHN renal) was over 25 µM, the GI50 (M14 melanoma) was over 25 µM and the TGI (M14 melanoma) was over 25 µM. For the same molecule, the GI50 (HS 578T breast) was over 25 µM, the TGI (HS 578T breast) was over 25 µM and the GI50 (SR leukemia) was over 25 µM. For the same molecule, the TGI (SR leukemia) was over 25 µM, the GI50 (MALME-3M melanoma) was over 25 µM and the TGI (MALME-3M melanoma) was over 25 µM. For the same molecule, the GI50 (LOX IMVI melanoma) was over 25 µM, the TGI (LOX IMVI melanoma) was over 25 µM and the GI50 (SK-OV-3 ovarian) was over 25 µM. The TGI (SK-OV-3 ovarian) was over 25 µM, the GI50 (SN12C renal) was over 25 µM and the TGI (SN12C renal) was over 25 µM. It also gave a GI50 (UACC-257 melanoma) of over 25 µM, a TGI (UACC-257 melanoma) of over 25 µM and a GI50 (UO-31 renal) of over 25 µM. For the same molecule, the TGI (UO-31 renal) was over 25 µM, the GI50 (NCI-H460 lung) was over 25 µM and the TGI (NCI-H460 lung) was over 25 µM. For the same molecule, the GI50 (HOP-92 NSCLC) was over 25 µM, the TGI (HOP-92 NSCLC) was over 25 µM and the GI50 (SK-MEL-2 melanoma) was over 25 µM. It also gave a TGI (SK-MEL-2 melanoma) of over 25 µM, a GI50 (MOLT-4 leukemia) of over 18 µM and a TGI (MOLT-4 leukemia) of over 25 µM. For the same molecule, the GI50 (OVCAR-4 ovarian) was over 25 µM, the TGI (OVCAR-4 ovarian) was over 25 µM and the GI50 (HCC-2998 colon) was over 25 µM. It also gave a TGI (HCC-2998 colon) of over 25 µM, a GI50 (SNB-19 CNS) of over 25 µM and a TGI (SNB-19 CNS) of over 25 µM. For the same molecule, the GI50 (RPMI-8226 leukemia) was over 25 µM, the TGI (RPMI-8226 leukemia) was over 25 µM and the GI50 (U251 CNS) was over 25 µM. The TGI (U251 CNS) was over 25 µM, the GI50 (TK-10 renal) was over 25 µM and the TGI (TK-10 renal) was over 25 µM. For the same molecule, the GI50 (HOP-62 NSCLC) was over 25 µM, the TGI (HOP-62 NSCLC) was over 25 µM and the GI50 (A549 NSCLC) was over 25 µM. It also gave a TGI (A549 NSCLC) of over 25 µM, a GI50 (NCI-H226 lung) of over 25 µM and a TGI (NCI-H226 lung) of over 25 µM. The GI50 (A498 renal) was over 25 µM, the TGI (A498 renal) was over 25 µM and the GI50 (NCI-H23 lung) was over 25 µM. For the same molecule, the TGI (NCI-H23 lung) was over 25 µM, the GI50 (COLO 205 colon) was over 25 µM and the TGI (COLO 205 colon) was over 25 µM. For the same molecule, the GI50 (SNB-75 CNS) was over 25 µM, the TGI (SNB-75 CNS) was over 25 µM and the GI50 (SK-MEL-5 melanoma) was over 25 µM. It also gave a TGI (SK-MEL-5 melanoma) of over 25 µM, a GI50 (SF-268 CNS) of over 25 µM and a TGI (SF-268 CNS) of over 25 µM. The GI50 (SF-295 CNS) was over 25 µM, the TGI (SF-295 CNS) was over 25 µM and the GI50 (IGROV1 ovarian) was over 25 µM. For the same molecule, the TGI (IGROV1 ovarian) was over 25 µM, the GI50 (DU-145 prostate) was over 25 µM and the TGI (DU-145 prostate) was over 25 µM. The GI50 (MDA-MB-231 breast) was over 25 µM, the TGI (MDA-MB-231 breast) was over 25 µM and the GI50 (KM12 colon) was over 25 µM. The TGI (KM12 colon) was over 25 µM, the GI50 (HT29 colon) was over 25 µM and the TGI (HT29 colon) was over 25 µM. It also gave a GI50 (RXF 393 renal) of over 25 µM, a TGI (RXF 393 renal) of over 25 µM and a GI50 (T-47D breast) of over 25 µM. It also gave a TGI (T-47D breast) of over 25 µM, a GI50 (NCI-H522 lung) of over 25 µM and a TGI (NCI-H522 lung) of over 25 µM. It also gave a GI50 (SF-539 CNS) of over 25 µM, a TGI (SF-539 CNS) of over 25 µM and a GI50 (MCF7 breast) of over 25 µM. The TGI (MCF7 breast) was over 25 µM, the GI50 (HL-60(TB) leukemia) was over 9.84 µM and the TGI (HL-60(TB) leukemia) was over 23.8 µM. For the same molecule, the GI50 (K-562 leukemia) was over 25 µM, the TGI (K-562 leukemia) was over 25 µM and the GI50 (HCT-116 colon) was over 25 µM. The TGI (HCT-116 colon) was over 25 µM, the GI50 (CCRF-CEM leukemia) was over 25 µM and the TGI (CCRF-CEM leukemia) was over 25 µM. It also gave a GI50 (MDA-MB-435) of over 25 µM, a TGI (MDA-MB-435) of over 25 µM and a GI50 (SK-MEL-28 melanoma) of over 25 µM. For the same molecule, the TGI (SK-MEL-28 melanoma) was over 25 µM, the GI50 (786-0 renal) was over 25 µM and the TGI (786-0 renal) was over 25 µM. For the same molecule, the GI50 (PC-3 prostate) was over 25 µM, the TGI (PC-3 prostate) was over 25 µM and the GI50 (CAKI-1 renal) was over 25 µM. For the same molecule, the TGI (CAKI-1 renal) was over 25 µM, the GI50 (SW-620 colon) was over 25 µM and the TGI (SW-620 colon) was over 25 µM.
